Laboratory results published in patent US12558353B2 (CELLTAXIS, LLC, priority 2018, dated 2026).

System: adult patients with cystic fibrosis
Assay: EMPIRE-CF Phase II randomized placebo-controlled trial: pulmonary exacerbations
Format: in vivo, human
Conditions: for adjusted mean (95% CI) annualized pulmonary exacerbation rate: all lung disease phenotypes; for adjusted mean (95% CI) annualized pulmonary exacerbation rate / proportion of patients who did not experience a pulmonary exacerbation during the study period: 48 weeks; for patients who did not have a pulmonary exacerbation during the study: baseline FEV1pp>75% (mild disease)
Source text: EMPIRE-CF was a Phase II multicenter, randomized, double-blind, placebo-controlled, parallel-group study to evaluate the efficacy and safety of acebilustat in adult patients with CF (NCT02443688). The study consisted of a 48-week treatment period and follow-up visit 4 weeks after treatment completion. Screening visits occurred up to 21 days prior to the first study drug dose (FIG. 2).
Patients were enrolled from 69 centers in the USA, Canada, and Europe. All centers were experienced in CF care and the conduct of clinical trials. In brief, adult women and men 18-30 years old with a documented diagnosis of CF, an FEV1pp≥50% at screening and at least one pulmonary exacerbation in the previous year were enrolled. Baseline demographics are presented in the section below.
Patients were randomized 1:1:1 to receive either once-daily oral acebilustat 50 mg or 100 mg (Celtaxsys, Atlanta, GA, USA), or placebo supplied as capsules. The two acebilustat doses were selected based on the levels of reduction of serum LTB4 production seen in Phase I studies.
Pulmonary exacerbations were defined as the requirement for oral, inhaled or intravenous antibiotics for four or more signs or symptoms according to the modified Fuch's criteria (change in sputum; new or increased hemoptysis; increased cough; increased dyspnea; malaise, fatigue or lethargy; temperature >38° C.; anorexia or weight loss; sinus pain or tenderness; change in sinus discharge; change in physical examination of the chest; ≥10% absolute decrease in FEV1pp from the previously recorded value; radiographic changes indicative of pulmonary infection) [Fuchs et al., 1994], referred collectively (antibiotics plus the four or more signs and symptoms) as expanded Fuchs criteria. The date the pulmonary exacerbation began was defined as the first day of antibiotic use.
Pulmonary exacerbations were analyzed both as the time to first pulmonary exacerbation and the rate of pulmonary exacerbations. The time to first protocol defined-pulmonary exacerbation were analyzed using a Cox proportional hazards model. The number of protocol-defined pulmonary exacerbations reported through the Week 48/Early Termination visit were annualized (where a year was defined as 52 weeks) analyzed using a negative binomial regression. The two active doses were compared to placebo individually as well as pooled together using a contrast statement similar to that used for the primary analysis. Point estimates, standard errors, and 95% CIs for the mean of number of pulmonary exacerbations were presented. The difference in means between each CTX-4430 group from placebo were presented along with standard errors and 95% CIs. Spirometry-based endpoints were analyzed using the same methods as the primary endpoint. Analyses of sputum DNA and elastase and serum high-sensitivity C-reactive protein were based upon descriptive statistics by treatment group.
The annual rate of pulmonary exacerbations was calculated by standard methods for each treatment group.

[1] = 100 mg dose, baseline FEV1pp>75%, FAP
[2] = FEV1pp greater than 75 and concomitant CFTR modulator therapy
[3] = FEV1pp>75 at baseline, 100 mg dose
[4] = acebilustat-treated patients overall, analysis population not given
[5] = baseline FEV1pp>75%, FAP, 50 mg
[6] = baseline FEV1pp>75%, FAP, 100 mg
[7] = concomitant CFTR modulator therapy, 100 mg dose

SMILES: O=C(O)c1ccc(CN2C[C@@H]3C[C@H]2CN3Cc2ccc(Oc3ccc(-c4ncco4)cc3)cc2)cc1 [acebilustat, 4-{[(1S,4S)-5-({4-[4-oxazol-2-yl-phenoxy]phenyl}methyl)-2,5-diazabicyclo[2.2.1]heptan-2-yl]methyl}benzoic acid]
- rate of pulmonary exacerbations requiring hospitalization as compared to placebo [1]: lower rate
- rate of pulmonary exacerbations requiring intravenous antibiotics as compared to placebo [1]: lower the rate
- Annualized Rate of Pulmonary Exacerbation (Adjusted Mean) (Baseline ppFEV1 >60, 50 mg): 1.44
- Annualized Rate of Pulmonary Exacerbation, % difference from Placebo (Baseline ppFEV1 >60, 50 mg): −2%
- Annualized Rate of Pulmonary Exacerbation (Adjusted Mean) (Baseline ppFEV1 >60, 100 mg): 1.27
- Annualized Rate of Pulmonary Exacerbation, % difference from Placebo (Baseline ppFEV1 >60, 100 mg): −14%
- Annualized Rate of Pulmonary Exacerbation (Adjusted Mean) (Baseline ppFEV1 >65, 50 mg): 1.25
- Annualized Rate of Pulmonary Exacerbation, % difference from Placebo (Baseline ppFEV1 >65, 50 mg): −14%
- Annualized Rate of Pulmonary Exacerbation (Adjusted Mean) (Baseline ppFEV1 >65, 100 mg): 1.05
- Annualized Rate of Pulmonary Exacerbation, % difference from Placebo (Baseline ppFEV1 >65, 100 mg): −28%
- Annualized Rate of Pulmonary Exacerbation (Adjusted Mean) (Baseline ppFEV1 >68, 50 mg): 1.12
- Annualized Rate of Pulmonary Exacerbation, % difference from Placebo (Baseline ppFEV1 >68, 50 mg): −7%
- Annualized Rate of Pulmonary Exacerbation (Adjusted Mean) (Baseline ppFEV1 >68, 100 mg): 0.81
- Annualized Rate of Pulmonary Exacerbation, % difference from Placebo (Baseline ppFEV1 >68, 100 mg): −33%
- Annualized Rate of Pulmonary Exacerbation (Adjusted Mean) (Baseline ppFEV1 >70, 50 mg): 1.2
- Annualized Rate of Pulmonary Exacerbation, % difference from Placebo (Baseline ppFEV1 >70, 50 mg): −22%
- Annualized Rate of Pulmonary Exacerbation (Adjusted Mean) (Baseline ppFEV1 >70, 100 mg): 0.92
- Annualized Rate of Pulmonary Exacerbation, % difference from Placebo (Baseline ppFEV1 >70, 100 mg): −40%
- Annualized Rate of Pulmonary Exacerbation (Adjusted Mean) (Baseline ppFEV1 >75, 50 mg): 1.28
- Annualized Rate of Pulmonary Exacerbation, % difference from Placebo (Baseline ppFEV1 >75, 50 mg): −20%
- Annualized Rate of Pulmonary Exacerbation (Adjusted Mean) (Baseline ppFEV1 >75, 100 mg): 0.84
- Annualized Rate of Pulmonary Exacerbation, % difference from Placebo (Baseline ppFEV1 >75, 100 mg): −48%
- time at which divergence in pulmonary exacerbation from placebo occurred (FAP and PP analysis): approximately 4 months
- adjusted mean (95% CI) annualized pulmonary exacerbation rate (FAP, 50 mg once daily oral): 1.46 (1.13, 1.89)
- adjusted mean (95% CI) annualized pulmonary exacerbation rate (FAP, 100 mg once daily oral): 1.57 (1.22, 2.02)
- adjusted mean (95% CI) annualized pulmonary exacerbation rate (FAP, combined acebilustat groups): 1.51 (1.26, 1.81)
- time to first pulmonary exacerbation, hazard ratio versus placebo (95% CI) (FAP, 50 mg): 0.86 (0.563, 1.308)
- proportion of patients who did not experience a pulmonary exacerbation during the study period (FAP, 50 mg): 39%
- time to first pulmonary exacerbation, hazard ratio versus placebo (95% CI) (FAP, 100 mg): 0.88 (0.576, 1.339)
- proportion of patients who did not experience a pulmonary exacerbation during the study period (FAP, 100 mg): 38%
- time to first pulmonary exacerbation, hazard ratio versus placebo (95% CI) (FAP, acebilustat combined group): 0.87 (0.605, 1.246)
- proportion of patients who did not experience a pulmonary exacerbation during the study period (FAP, combined acebilustat dose group): 38%
- response to acebilustat treatment (rate of exacerbations, hazard ratio) (FEV1 at or below 75% (≤75%)): did not exhibit the same level of response
- decrease in the rate of pulmonary exacerbations versus placebo [2]: 54%
- higher proportion of patients exacerbation free at 48 weeks versus placebo [2]: 165%
- decrease in the rate of pulmonary exacerbations versus placebo (FEV1pp greater than 75 and concomitant CFTR modulator therapy, 100 mg dose): 65%
- higher proportion of patients exacerbation free after 48 weeks of treatment versus placebo [3]: 100%
- reduction in PEx rate versus placebo [3]: 48%
- reduction in risk of experiencing first exacerbation versus placebo [3]: 48%
- more patients with no PEx during the study compared with placebo [4]: 32%
- reduced risk in progressing to first PEx versus placebo [4]: 22%
- reduction in PEx versus placebo [4]: 18%
- response to acebilustat treatment (rate of pulmonary exacerbations) (baseline FEV1pp at or below the median (≤68%)): did not exhibit the same level of response
- annual rate of pulmonary exacerbations versus placebo (baseline FEV1pp higher than the median (>68%)): lower annual rate of pulmonary exacerbations versus placebo
- patients who did not have a pulmonary exacerbation during the study (50 mg): 48%
- patients who did not have a pulmonary exacerbation during the study (100 mg): 50%
- patients who did not have a pulmonary exacerbation during the study (combined acebilustat group): 49%
- adjusted mean (95% CI) annualized rate of pulmonary exacerbations [5]: 1.28 (0.84, 1.96)
- time to first pulmonary exacerbation, hazard ratio (95% CI) versus placebo [5]: 0.62 (0.304, 1.274)
- adjusted mean (95% CI) annualized rate of pulmonary exacerbations [6]: 0.84 (0.49, 1.44)
- time to first pulmonary exacerbation, hazard ratio (95% CI) versus placebo [6]: 0.52 (0.245, 1.101)
- time to first pulmonary exacerbation, hazard ratio (95% CI) versus placebo (baseline FEV1pp>75%, FAP, acebilustat combined group): 0.57 (0.307, 1.051)
- adjusted mean (95% CI) annualized rate of pulmonary exacerbations (baseline FEV1pp>75%, FAP, combined acebilustat groups): 1.04 (0.74, 1.46)
- reduction in rate of PEx versus CFTR modulators and placebo (concomitant CFTR modulator therapy, regardless of disease severity, 100 mg dose): 14%
- higher proportion of patients with no exacerbations versus CFTR modulators and placebo [7]: 51%
- increased time to first exacerbation versus CFTR modulators and placebo [7]: 27%
- higher percentage of patients that were exacerbation free (patients off CFTR modulator therapy): about 15%
